Measurements reported in article PMC7079562 (Bioorganic & Medicinal Chemistry, 2016).

Molecular target: SARS-CoV 3CL^pro (Severe acute respiratory syndrome coronavirus, UniProt P0C6X7)
Assay type: biochemical

Row | Structure (SMILES) | Inhibitory activity against SARS 3CLpro (in words)
1 | O=C1/C(=C\c2ccc(-c3ccccc3)o2)C(c2ccccc2)=NN1c1ccccc1 [Compound 3j, 2,5-Diphenyl-4-((5-phenylfuran-2-yl)methylene)-2,4-dihydro-3H-pyrazol-3-one] | inactive
2 | CC1=NN(c2ccccc2)C(=O)/C1=C\c1ccc(-c2cc(Cl)ccc2C(=O)O)o1 [Compound 3e, 4-Chloro-2-(5-((3-methyl-5-oxo-1-phenyl-1,5-dihydro-4H-pyrazol-4-ylidene)methyl)furan-2-yl)benzoic acid] | unable to inhibit
3 | CC1=NN(c2cccc(C(=O)O)c2)C(=O)/C1=C\c1ccc(-c2ccccc2)o1 [Compound 3l, 3-(3-Methyl-5-oxo-4-((5-phenylfuran-2-yl)methylene)-4,5-dihydro-1H-pyrazol-1-yl)benzoic acid] | unable to inhibit
